Article PMC12190736, “Development and In Vitro Characterization of [^3H]GMC-058 as Radioligand for Imaging Parkinsonian-Related Proteinopathies” (Cells, 2025)

What was measured:
[1] = target: AD, PSP, CBD, MSA-P, PD and control brain homogenates; test: Saturation binding assays with [^3H]GMC-058 in brain homogenates
Procedure: For AD, CBD, PSP, and CT cases, the frozen tissue blocks were prepared as described by Stehouwer et al. [13]. In brief, tissue blocks were thawed and homogenized in ice-cold pH 7.0 phosphate-buffered saline (PBS) at 300 mg/mL on ice using a glass homogenizer, diluted 30-fold with PBS to 10 mg/mL, and homogenized a second time with a Brinkmann Polytron homogenizer before storage at −80 °C.
After incubation, samples were filtered under vacuum on equilibrated GF/B UniFilter plates (PerkinElmer) using the FilterMate 196 (PerkinElmer). Afterwards, filters were washed three times with 250 μL chilled buffer (PBS + 20% EtOH). [^3H]GMC-058 binding was measured with a beta scintillation counter (PerkinElmer). The saturation data was fitted and analyzed using the non-linear regression function of GraphPad Prism 10 software to calculate the dissociation constant (KD) and maximum number of binding sites (Bmax). Scatchard plots were prepared with GraphPad Prism 10 software to display the saturation binding data.

[2] = tested on: fresh-frozen human brain sections; test: Autoradiography on fresh-frozen brain tissue sections; format: binding; conditions: for NSB: 5 µM GMC044; for Specific binding relative to displaceable binding in controls: on average
Procedure: Selections of frozen human sections (described in Table 2 and Table 3) were used for binding autoradiography. Sections were first pre-incubated for 20 min in binding buffer [50 mM Tris-HCl (pH 7.4), 120 mM NaCl, 5 mM KCl, 2 mM CaCl2, 1 mM MgCl2, and 0.1% BSA] and then incubated with [^3H]GMC-058 (specific activity 22 Ci/mmol); [^3H]GMC-073 (specific activity 23.4 Ci/mmol); or […] in binding buffer for 180 min at RT. In the pilot autoradiography experiment (Figure A1). [^3H]GMC-058 was tested at 25 and 50 nM, while [^3H]GMC-073 and [^3H]GMC-098 were each tested at 10 and 20 nM. For all other autoradiography in fresh-frozen tissue sections, 25 nM [^3H]GMC-058 was used. To determine NSB, adjacent brain sections were incubated with [^3H]-tracer mixed with 5 μM of unlabeled GMC-044. The binding reaction was stopped with two 10 min washes in washing buffer [50 mM Tris-HCl (pH 7.4) at 4 °C] and a brief dip in cold distilled water. Slides were allowed to air-dry before being placed under storage phosphor screens (Fujifilm Plate BAS-TR2025, Fujifilm, Tokyo, Japan) in imaging cassettes for 90 h together with ART0123C and ART0123B tritium standards on glass slides (American Radiolabeled Chemicals Inc., St. Louis, MO, USA). Storage phosphor screens were scanned using an Amersham Typhoon FLA-9500 phosphor imaging scanner (Cytiva, Marlborough, MA, USA), and the resulting images were analyzed using Multi Gauge 3.2 phosphor imager software (Fujifilm, Tokyo, Japan) for ROI delimitation, density calibration, and quantification. Quantitative binding data from duplicates of the total, and NSB were plotted and analyzed using graphPad Prism v10 (GraphPad Software, Boston, MA, USA). Specific binding was determined by subtracting the non-specific signal from the total signal. The toluidine blue staining of adjacent sections was used to obtain anatomical references for white- and gray-matter ROI selection. Care was taken not to include artifact signals in the ROIs analyzed. These artifacts were identified as randomly placed punctate signals appearing in both total and NSB images, and they often coincided with small folds or tears in the tissue sections.

[3] = 25 nM radioligand, gray matter of cingulate cortex, control C03
[4] = 25 nM, PD1, cingulate gyrus, GM
[5] = 25 nM, PD1, cingulate gyrus, WM
[6] = 25 nM, PD2, cingulate gyrus, GM
[7] = 25 nM, PD2, cingulate gyrus, WM
[8] = 25 nM, PD3, cingulate gyrus, GM
[9] = 25 nM, PD3, cingulate gyrus, WM
[10] = 25 nM, non-dementia control C01, cingulate gyrus, GM
[11] = 25 nM, non-dementia control C01, cingulate gyrus, WM
[12] = 25 nM, non-dementia control C02, cingulate gyrus, GM
[13] = 25 nM, non-dementia control C02, cingulate gyrus, WM
[14] = 25 nM, non-dementia control C03, cingulate gyrus, GM
[15] = 25 nM, non-dementia control C03, cingulate gyrus, WM
[16] = 50 nM radioligand, gray matter of cingulate cortex, control C03

- Kd ([1]; AD brain homogenates): 5.4 nM
- Kd ([1]; CBD brain homogenates): > 50 nM
- Saturation binding ([1]; PD tissue): No evidence of saturation binding
- Kd ([1]; PSP brain homogenates): > 50 nM
- Kd ([1]; control brain homogenates): > 100 nM
- Total binding [2, 3]: 57.6 ± 1.8 fmol/mg tissue equivalent
- Specific Binding ([2]; 25 nM, CBD1 block 1, SFG, GM): 50 fmol/mg tissue equivalent
- Specific Binding ([2]; 25 nM, CBD1 block 1, SFG, WM): 29 fmol/mg tissue equivalent
- Specific Binding ([2]; 25 nM, CBD1 block 2, SFG, GM): 32 fmol/mg tissue equivalent
- Specific Binding ([2]; 25 nM, CBD1 block 2, SFG, WM): 130 fmol/mg tissue equivalent
- Specific binding relative to displaceable binding in controls ([2]; 25 nM, CBD, gray matter of superior frontal gyrus): three-fold
- Total binding ([2]; 25 nM, MSA1, cerebellum, GM): 46.9 fmol/mg tissue equivalent
- Total binding ([2]; 25 nM, MSA1, cerebellum, WM): 50.1 fmol/mg tissue equivalent
- Total binding ([2]; 25 nM, MSA2, cerebellum, GM): 30.3 fmol/mg tissue equivalent
- Total binding ([2]; 25 nM, MSA2, cerebellum, WM): 52.5 fmol/mg tissue equivalent
- Specific Binding ([2]; 25 nM, MSA3, cerebellum, GM): 26 fmol/mg tissue equivalent
- Specific Binding ([2]; 25 nM, MSA3, cerebellum, WM): 21 fmol/mg tissue equivalent
- Specific Binding ([2]; 25 nM, MSA4, cerebellum, GM): 23 fmol/mg tissue equivalent
- Specific Binding ([2]; 25 nM, MSA4, cerebellum, WM): 49 fmol/mg tissue equivalent
- Specific Binding ([2]; 25 nM, NDE C03, cingulate cortex, GM): 15 fmol/mg tissue equivalent
- Specific Binding ([2]; 25 nM, NDE C03, cingulate cortex, WM): −2 fmol/mg tissue equivalent
- Specific Binding ([2]; 25 nM, NDE C04, caudate, GM): 8 fmol/mg tissue equivalent
- Specific Binding ([2]; 25 nM, NDE C04, caudate, WM): −1 fmol/mg tissue equivalent
- Specific Binding ([2]; 25 nM, NDE C04, globus pallidus, GM): 10 fmol/mg tissue equivalent
- Specific Binding ([2]; 25 nM, NDE C04, globus pallidus, WM): 0 fmol/mg tissue equivalent
- Specific Binding ([2]; 25 nM, NDE Co4, putamen, GM): 12 fmol/mg tissue equivalent
- Specific Binding ([2]; 25 nM, NDE Co4, putamen, WM): 4 fmol/mg tissue equivalent
- Total binding [2, 4]: 55.6 fmol/mg tissue equivalent
- Total binding [2, 5]: 52.5 fmol/mg tissue equivalent
- Total binding [2, 6]: 16.2 fmol/mg tissue equivalent
- Total binding [2, 7]: 55.4 fmol/mg tissue equivalent
- Total binding [2, 8]: 59.3 fmol/mg tissue equivalent
- Total binding [2, 9]: 55.4 fmol/mg tissue equivalent
- Specific Binding ([2]; 25 nM, PSP1, GP, GM): 102 fmol/mg tissue equivalent
- Specific Binding ([2]; 25 nM, PSP1, GP, WM): 32 fmol/mg tissue equivalent
- Specific Binding ([2]; 25 nM, PSP2, GP, GM): 118 fmol/mg tissue equivalent
- Specific Binding ([2]; 25 nM, PSP2, GP, WM): −1 fmol/mg tissue equivalent
- Specific binding relative to displaceable binding in controls ([2]; 25 nM, PSP, gray matter of globus pallidus): ten-fold
- Total binding [2, 10]: 56.8 fmol/mg tissue equivalent
- Total binding [2, 11]: 56.9 fmol/mg tissue equivalent
- Total binding [2, 12]: 44.3 fmol/mg tissue equivalent
- Total binding [2, 13]: 45.3 fmol/mg tissue equivalent
- Total binding [2, 14]: 45.3 fmol/mg tissue equivalent
- Total binding [2, 15]: 48.7 fmol/mg tissue equivalent
- Specific binding relative to average displaceable binding in gray matter of controls ([2]; 25 nM, two MSA cases, cerebellar gray matter): two-fold higher
- Average specific binding ([2]; 25 nM, white matter of MSA and CBD cases): 35 to 80 fmol/mg
- Specific Binding ([2]; 25 nM, white matter of control cases): No specific binding
- Total binding [2, 16]: 114.1 ± 9.3 fmol/mg tissue equivalent
- Binding displaced by GMC-044 ([2]; 5 µM GMC-044, control cingulate cortex tissue): ~ 65%
- Binding in control tissue ([2]; cingulate cortex of healthy controls): negligible binding
Structure (SMILES): [3H]c1cc(N2CCN(c3ccc(NC(=O)C(C)(C)C)cc3)CC2)ccc1OC [[^3H]GMC-058, N-(4-(4-(4-methoxy-[3-3H]phenyl)piperazin-1-yl)phenyl)pivalamide]
- NSB [2, 3]: 37.6 ± 3.8 fmol/mg tissue equivalent
- Total Minus NSB [2, 3]: 20 fmol/mg
- NSB (5 µM GMC044) ([2]; 25 nM, MSA1, cerebellum, GM): 27.4 fmol/mg tissue equivalent
- Total Minus NSB ([2]; 25 nM, MSA1, cerebellum, GM): 19.5 fmol/mg tissue equivalent
- NSB (5 µM GMC044) ([2]; 25 nM, MSA1, cerebellum, WM): 33.3 fmol/mg tissue equivalent
- Total Minus NSB ([2]; 25 nM, MSA1, cerebellum, WM): 16.8 fmol/mg tissue equivalent
- NSB (5 µM GMC044) ([2]; 25 nM, MSA2, cerebellum, GM): 19.9 fmol/mg tissue equivalent
- Total Minus NSB ([2]; 25 nM, MSA2, cerebellum, GM): 10.3 fmol/mg tissue equivalent
- NSB (5 µM GMC044) ([2]; 25 nM, MSA2, cerebellum, WM): 27.7 fmol/mg tissue equivalent
- Total Minus NSB ([2]; 25 nM, MSA2, cerebellum, WM): 24.8 fmol/mg tissue equivalent
- NSB (5 µM GMC044) [2, 4]: 42.3 fmol/mg tissue equivalent
- Total Minus NSB [2, 4]: 13.3 fmol/mg tissue equivalent
- NSB (5 µM GMC044) [2, 5]: 50.6 fmol/mg tissue equivalent
- Total Minus NSB [2, 5]: 1.9 fmol/mg tissue equivalent
- NSB (5 µM GMC044) [2, 6]: 17.1 fmol/mg tissue equivalent
- Total Minus NSB [2, 6]: −0.9 fmol/mg tissue equivalent
- NSB (5 µM GMC044) [2, 7]: 53.7 fmol/mg tissue equivalent
- Total Minus NSB [2, 7]: 1.6 fmol/mg tissue equivalent
- NSB (5 µM GMC044) [2, 8]: 42.0 fmol/mg tissue equivalent
- Total Minus NSB [2, 8]: 17.2 fmol/mg tissue equivalent
- NSB (5 µM GMC044) [2, 9]: 47.1 fmol/mg tissue equivalent
- Total Minus NSB [2, 9]: 8.3 fmol/mg tissue equivalent
- Specific binding versus controls ([2]; 25 nM, cingulate cortex of controls and PD patients, cerebellum of MSA patients): did not show clear evidence of specific binding higher than the displaceable (off-target) binding in controls
- NSB (5 µM GMC044) [2, 10]: 60.3 fmol/mg tissue equivalent
- Total Minus NSB [2, 10]: −3.5 fmol/mg tissue equivalent
- NSB (5 µM GMC044) [2, 11]: 59.8 fmol/mg tissue equivalent
- Total Minus NSB [2, 11]: −2.9 fmol/mg tissue equivalent
- NSB (5 µM GMC044) [2, 12]: 24.6 fmol/mg tissue equivalent
- Total Minus NSB [2, 12]: 19.8 fmol/mg tissue equivalent
- NSB (5 µM GMC044) [2, 13]: 31.8 fmol/mg tissue equivalent
- Total Minus NSB [2, 13]: 13.6 fmol/mg tissue equivalent
- NSB (5 µM GMC044) [2, 14]: 28.6 fmol/mg tissue equivalent
- Total Minus NSB [2, 14]: 16.7 fmol/mg tissue equivalent
- NSB (5 µM GMC044) [2, 15]: 39.0 fmol/mg tissue equivalent
- Total Minus NSB [2, 15]: 9.7 fmol/mg tissue equivalent
- NSB [2, 16]: 74.6 ± 4.1 fmol/mg tissue equivalent
- Total Minus NSB [2, 16]: 40 fmol/mg
